From BindingDB's records for doi:10.1111/cbdd.12497 (Shandong University, 2015)

target: Reverse transcriptase protein (Human immunodeficiency virus 1, UniProt Q9WJQ1); assay: In vitro Anti-HIV RT Assay
From the text: The HIV-1 RTwt inhibition assay was implemented using the template/primer hybrid poly(A)9oligo(dT)15, digoxigenin- and biotin-labeled nucleotides, an antibody to digoxigenin which is conjugated to peroxidase (anti-DIG-POD), and the peroxidase substrate ABTS for quantifying the RT polymerase activity. The incorporation quantities of the digoxigenin- and biotin-labeled dUTP into DNA represented the activity of HIV-1 RT. The IC50 value corresponds to the concentration of the tested compound required to inhibit the incorporation of the labeled dUTP by 50%. The procedure for RT assay was performed as described in the kit (Roche) protocol

In order of falling IC50:
1. Cc1cc(C)cc(C(=O)c2cccnc2Oc2ccc(C#N)cc2)c1 [4-(3-(3,5-Dimethylbenzoyl)pyridin-2-yloxy)benzonitrile (6a1)]  150000 nM
2. Cc1ccnc2c1NC(=O)c1cccnc1N2C1CC1 [BI-RG-587]  580 nM
3. Cc1cc(C#N)cc(C)c1Oc1nc(Nc2ccc(C#N)cc2)nc(N)c1Br  89 nM
